# Patent EP0354047A2, “Herbicidal method using atrazine” (MAY & BAKER LIMITED, priority 1988, dated 1990)
# What was measured:
# Type in all cases: in vivo
# [1] = tested on: Brachiaria plantaginea (BRAPL); assay: Experiment 1: field experiment, post-emergence spray, % control 29 days after application; details: Atrazine 1500g/ha
# Description: (§1) Duplicate 12m² plots were sprayed post-emergence with 250g or 500g/ha Compound 1 (in a composition according to Example 1 as described hereinafter) or 1500g/ha atrazine (in a commercial aqueous suspension concentrate formulation containing 500g/l w/v atrazine or a combination (as a tank mix) of the two herbicides in a volume of 300 litres/ha. The following control figures were recorded on the grass weeds Brachiaria plantaginea (BRAPL), Digitaria horizontalis (DIGHO) and Eleusine indica (ELEIN) 29 days after application.
# [2] = tested on: Digitaria horizontalis (DIGHO); assay: as above; details: Atrazine 1500g/ha
# Description: as §1
# Eleusine indica (ELEIN) = assay: as above; details: Atrazine 1500g/ha
# Description: as §1
# Brassica kaber = assay: Experiment 4: glasshouse, pre-emergence, fresh weight after 27 days, % inhibition of growth; details: for % inhibition of growth: Compound 99 0 g/ha
# Description: (§2) Glasshouse experiments showing the biological interaction between atrazine and Compound 99 on weed species when applied pre-emergence. […] After 27 days the fresh weight of vegetation in each pot was determined. […] E = […]00005:character} where E, X and Y are percentage inhibition of growth. In addition the ED90 values (the application rate giving 90% inhibition of growth) were calculated from the results for Compound 99 alone and with increasing rates of atrazine. The ED90 values were then used to plot an isobole for each species according to the method of […] op cit. The results of percentage inhibition of growth, the ED values calculated from them and the calculated expected values are given in Table 8.
# Sida spinosa = assay: as above; details: for % inhibition of growth: Compound 99 0 g/ha
# Description: as §2
smiles,measurement,setting,value
"CCNc1nc(Cl)nc(NC(C)C)n1 [Atrazine, 2-chloro-4-ethylamino-6-isopropylamino-1,3,5-triazine]",% control observed,[1],10%
same,% control observed,[2],0%
same,% control observed,Eleusine indica (ELEIN),0%
same,ED₉₀,Brassica kaber; Atrazine alone,ED₉₀(g/ha) 157.7
same,% inhibition of growth,Brassica kaber; Atrazine 16 g/ha,0%
same,% inhibition of growth,Brassica kaber; Atrazine 31 g/ha,0%
same,% inhibition of growth,Brassica kaber; Atrazine 63 g/ha,34%
same,% inhibition of growth,Brassica kaber; Atrazine 125 g/ha,70%
same,% inhibition of growth,Brassica kaber; Atrazine 250 g/ha,100%
same,% inhibition of growth,Brassica kaber; Atrazine 500 g/ha,100%
same,ED₉₀,Sida spinosa; Atrazine alone,ED₉₀(g/ha) 478.75
same,% inhibition of growth,Sida spinosa; Atrazine 16 g/ha,10%
same,% inhibition of growth,Sida spinosa; Atrazine 31 g/ha,2%
same,% inhibition of growth,Sida spinosa; Atrazine 63 g/ha,15%
same,% inhibition of growth,Sida spinosa; Atrazine 125 g/ha,23%
same,% inhibition of growth,Sida spinosa; Atrazine 250 g/ha,37%
same,% inhibition of growth,Sida spinosa; Atrazine 500 g/ha,95%
